“Also recorded” adds a separate entry of the source. Read-outs that look alike come from different tables or passages of the source.
What was measured:
[1] = tested on: MCF-7 breast cancer cell line; experiment: SRB anti-proliferative assay, MCF-7; format: cell-based, human; conditions: for IC50: Homo sapiens, read-out: IC50 MCF-7
Description: (§1) Cytotoxicity was assessed following the SRB colorimetric assay protocol, as reported earlier.
(§2) 1. Anti-proliferative action toward human breast cell lines […]
(§3) have been obtained from American Type Culture Collection (ATCC). The cells were maintained in Dulbecco's modified Eagle's medium (DMEM) supplemented with 10% heat inactivated fetal calf serum (GIBCO), penicillin (100 U/ml) and streptomycin (100 µg/ml) at 37 °C in humidified atmosphere containing 5% CO2. Cells at a concentration of […]
(§4) The anti-proliferative activity of the tested hybrids 6a-i, 9a-f and 11a, b was measured in vitro using the Sulfo-Rhodamine-B stain (SRB) assay. Briefly, Cells were inoculated in 96-well microtiter plate (5X104 cells/ well) for 24 h before treatment with the tested compounds to allow attachment of cell to the wall of the plate. Tested compounds were dissolved in DMSO at 1 mg/ml immediately before use and diluted to the appropriate volume just before addition to the cell culture. Different concentrations of tested compounds, doxorubicin and sorafenib were added to the cells (three wells were prepared for each individual dose). Cells were incubated with the compounds for 48 h at 37°C and in atmosphere of 5% CO2. After 48 h cells were fixed, washed, and stained for 30 min with 0.4% (w/v) SRB dissolved in 1% acetic acid. Unbound dye was removed by four washes with 1% acetic acid, and attached stain was recovered with Tris-EDTA buffer.
(§5) Color intensity was measured in an ELISA reader. […]

[2] = tested on: MDA-MB-231 breast cancer cell line; experiment: SRB anti-proliferative assay, MDA-MB-231; format: cell-based, human; conditions: for IC50 / IC50 MDA-MB-231: mean ± S.D. from 3 separate experiments
Description: as §1, §2, §3, §4, §5

[3] = biological target: T1, CDK2 (Homo sapiens, UniProt P24941); experiment: CDK2 kinase inhibition (Reaction Biology HotSpot); format: biochemical; conditions: single dose of 20 µM; read-out: % Enzyme Inhibitory Activity CDK2
T1 construct: purchased Reaction Biology Corp. (Kinase HotSpot service)
Text: (§6) 5. CDK Kinase Inhibitory Activity
(§7) along with required cofactors.
(§8) Kinase activity data were
(§9) (dimethyl sulfoxide) reactions.

[4] = biological target: T2, CDK4 (Homo sapiens, UniProt P11802); experiment: CDK4 kinase inhibition (Reaction Biology HotSpot); format: biochemical; conditions: for inhibition at 20 µM: single dose of 20 µM
T2 construct: purchased Reaction Biology Corp. (Kinase HotSpot service)
Text: as §6, §7, §8, §9

[5] = biological target: CDK9 (Homo sapiens, UniProt P50750); experiment: CDK9 kinase inhibition (Reaction Biology HotSpot); conditions: read-out: % Enzyme Inhibitory Activity CDK9
Description: The in vitro CDK kinase inhibition assay was performed by Reaction Biology Corp. (PA, USA) (http://www.reactionbiology.com) Kinase HotSpotSM service.
Reaction Biology Corp. Kinase HotSpotSM service (http://www.reactionbiology.com)
was used for screening of tested compounds. CDK Kinase inhibitory activities were
assessed by the HotSpot assay platform, which contained specific kinase/substrate pairs
along with required cofactors. Base reaction buffer: 20 mM Hepes (pH 7.5), 10 mM MgCl2,
Testing compounds were dissolved in 100% DMSO to specific concentration. The serial
dilution was conducted by Integra Viaflo Assist in DMSO. The reaction mixture containing the examined compound and 33P-ATP was incubated at room temperature for
2 h and radioactivity was detected by filter-binding method. Kinase activity data were
expressed as the percent remaining kinase activity in test samples compared to vehicle

[6] = Homo sapiens, MDA-MB-231, 48 h, read-out: IC50 MDA-MB-231, SRB assay, 48 h
[7] = MCF7, SRB assay, 48 h, mean ± S.D. from 3 separate experiments
[8] = Homo sapiens, MDA-MB-231, SRB assay, 48 h, read-out: IC50 MDA-MB-231
[9] = SRB assay, 48 h, mean ± S.D. from 3 separate experiments

T2 sequence (P11802 whole entry): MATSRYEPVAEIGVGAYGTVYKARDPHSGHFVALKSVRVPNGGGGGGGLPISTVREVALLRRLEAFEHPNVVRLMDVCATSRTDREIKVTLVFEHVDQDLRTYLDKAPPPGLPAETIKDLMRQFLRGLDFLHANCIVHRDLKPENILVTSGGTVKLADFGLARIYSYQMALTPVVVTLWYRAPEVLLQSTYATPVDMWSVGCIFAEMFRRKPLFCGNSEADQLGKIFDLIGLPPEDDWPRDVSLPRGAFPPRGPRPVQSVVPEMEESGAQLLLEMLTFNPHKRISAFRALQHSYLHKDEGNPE
T2 sequence (P24385 whole entry partner): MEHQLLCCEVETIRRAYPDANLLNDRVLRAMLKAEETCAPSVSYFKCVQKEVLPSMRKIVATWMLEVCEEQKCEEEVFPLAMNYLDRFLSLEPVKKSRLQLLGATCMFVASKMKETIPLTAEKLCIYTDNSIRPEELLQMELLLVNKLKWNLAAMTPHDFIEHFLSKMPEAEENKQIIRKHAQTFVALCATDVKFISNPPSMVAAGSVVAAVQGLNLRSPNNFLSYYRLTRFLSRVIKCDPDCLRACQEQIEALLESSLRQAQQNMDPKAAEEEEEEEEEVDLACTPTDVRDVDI
CDK9, sequence (P50750 whole entry): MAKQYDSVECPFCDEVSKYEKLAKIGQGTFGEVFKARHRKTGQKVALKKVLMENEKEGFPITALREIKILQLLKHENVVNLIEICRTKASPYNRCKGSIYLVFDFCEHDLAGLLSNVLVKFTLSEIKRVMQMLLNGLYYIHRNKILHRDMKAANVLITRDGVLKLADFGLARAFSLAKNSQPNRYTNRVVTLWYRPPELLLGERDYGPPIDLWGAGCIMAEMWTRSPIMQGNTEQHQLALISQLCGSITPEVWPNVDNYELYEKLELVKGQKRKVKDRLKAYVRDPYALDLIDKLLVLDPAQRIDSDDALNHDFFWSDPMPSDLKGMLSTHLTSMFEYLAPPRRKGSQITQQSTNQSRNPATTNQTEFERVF
CDK9, sequence (O60563 whole entry partner): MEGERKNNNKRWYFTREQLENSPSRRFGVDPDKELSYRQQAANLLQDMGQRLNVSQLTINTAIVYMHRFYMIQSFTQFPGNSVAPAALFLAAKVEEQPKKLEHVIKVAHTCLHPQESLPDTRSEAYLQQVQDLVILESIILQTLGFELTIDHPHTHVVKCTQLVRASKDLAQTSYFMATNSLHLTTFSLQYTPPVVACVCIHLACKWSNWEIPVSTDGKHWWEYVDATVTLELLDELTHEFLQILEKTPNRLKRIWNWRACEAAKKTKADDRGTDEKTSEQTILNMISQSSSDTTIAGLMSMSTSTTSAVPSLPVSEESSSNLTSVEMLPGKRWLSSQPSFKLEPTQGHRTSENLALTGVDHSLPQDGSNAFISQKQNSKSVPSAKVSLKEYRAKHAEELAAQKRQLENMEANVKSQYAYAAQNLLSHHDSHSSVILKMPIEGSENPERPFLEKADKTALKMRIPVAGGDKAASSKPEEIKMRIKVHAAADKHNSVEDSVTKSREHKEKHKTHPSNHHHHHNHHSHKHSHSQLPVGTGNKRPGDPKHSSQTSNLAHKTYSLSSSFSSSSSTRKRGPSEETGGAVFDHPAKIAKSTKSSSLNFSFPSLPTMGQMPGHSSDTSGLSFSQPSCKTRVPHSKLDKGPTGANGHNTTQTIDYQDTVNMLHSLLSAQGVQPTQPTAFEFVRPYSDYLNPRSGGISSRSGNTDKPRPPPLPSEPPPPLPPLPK

Row | Compound | IC50 [1, 7] | IC50 [2, 8] | inhibition at 20 µM [3] | inhibition at 20 µM [4] | inhibition at 20 µM [5] | also measured
1 | CCCN1C(=O)/C(=N\NC(=O)c2cc3ccccc3[nH]2)c2ccccc21 [9b] | – | – | – | – | – | IC50 ([1]; MCF7, 48 h): 40.9 ± 3.17 µM; IC50 [2, 6]: 18.2 ± 0.85 µM; IC50 ([2]; read-out: IC50 MDA-MB-231, SRB assay, 48 h): 18.5 ± 0.85 µM
2 | Cc1cc(C)c2c(c1)/C(=N/NC(=O)c1cc3ccccc3[nH]1)C(=O)N2 [6i] | 47.2 ± 3.02 µM | > 100 µM | – | – | – | IC50 MDA-MB-231 ([2]; SRB assay, 48 h): no activity
3 | O=C(N/N=C1\C(=O)N(Cc2ccc(F)cc2)c2ccccc21)c1cc2ccccc2[nH]1 [9e] | – | – | 5% | 12% | 9% | IC50 ([1]; MCF7, 48 h): 3.7 ± 0.19 µM; IC50 [2, 6]: 1.03 ± 0.04 µM
4 | O=C1Nc2ccc(Br)cc2/C1=N/NC(=O)c1cc2ccccc2[nH]1 [6d] | 3.31 ± 0.11 µM | 18.3 ± 0.71 µM | 85% | 43% | 32% | –
5 | CCOC(=O)CN1C(=O)/C(=N\NC(=O)c2cc3ccccc3[nH]2)c2ccccc21 [9c] | 67.5 ± 3.02 µM | > 100 µM | – | – | – | IC50 MDA-MB-231 ([2]; SRB assay, 48 h): no anti-proliferative activity
6 | CN[C@@H]1C[C@H]2O[C@@](C)([C@@H]1OC)n1c3ccccc3c3c4c(c5c6ccccc6n2c5c31)C(=O)NC4 [Staurosporine, reference compound] | – | – | – | – | 98% | –
7 | O=C1Nc2ccc(F)cc2/C1=N/NC(=O)c1cc2ccccc2[nH]1 [6b] | 6 ± 0.32 µM | 6.36 ± 0.29 µM | 48% | 33% | 7% | –
8 | O=C1Nc2ccccc2/C1=N/NC(=O)c1cc2ccccc2[nH]1 [6a] | 3.12 ± 0.14 µM | 15.1 ± 0.73 µM | 78% | 92% | 20% | IC50 [4]: 1.82 µM
9 | O=C1Nc2ccc([N+](=O)[O-])cc2/C1=N/NC(=O)c1cc2ccccc2[nH]1 [6h] | 21.4 ± 1.58 µM | 1.85 ± 0.07 µM | ≥ 50% | 46% | 10% | fold potency compared to staurosporine ([2]; MDA-MB-231, ratio of IC50 values): 5.56 fold
10 | CCCN1C(=O)/C(=N\NC(=O)c2cc3ccccc3[nH]2)c2cc(Cl)ccc21 [9f] | – | – | – | – | – | IC50 ([1]; MCF7, 48 h): 19.3 ± 0.65 µM; IC50 [2, 6]: 9.44 ± 0.35 µM
11 | O=C1Nc2ccc(OC(F)(F)F)cc2/C1=N/NC(=O)c1cc2ccccc2[nH]1 [6g] | 5.07 ± 0.21 µM | 7.19 ± 0.38 µM | 14% | 19% | 4% | –
12 | O=C(N/N=C1\C(=O)N(Cc2ccccc2)c2ccccc21)c1cc2ccccc2[nH]1 [9d] | – | – | – | – | – | IC50 ([1]; MCF7, 48 h): 9.56 ± 0.61 µM; IC50 [2, 6]: 6.5 ± 0.39 µM
13 | CN1C(=O)/C(=N\NC(=O)c2cc3ccccc3[nH]2)c2ccccc21 [9a] | 5.5 ± 0.28 µM | 8.39 ± 0.27 µM | 41% | 20% | 13% | –
14 | O=C1Nc2ccc(Cl)cc2/C1=N/NC(=O)c1cc2ccccc2[nH]1 [6c] | 2.72 ± 0.17 µM | 9.48 ± 0.44 µM | ≥ 50% | 28% | 11% | –
15 | O=C(N/N=C1\CCCc2ccccc21)c1cc2ccccc2[nH]1 [11b] | > 100 µM | > 100 µM | – | – | – | IC50 MCF-7 [1, 9]: did not exert any significant anti-proliferative action; IC50 MDA-MB-231 ([2]; SRB assay, 48 h): no activity; also recorded: did not exert any significant anti-proliferative action
16 | O=C(NN=C1Cc2ccccc2C1)c1cc2ccccc2[nH]1 [11a] | 84.7 ± 4.02 µM | > 100 µM | – | – | – | IC50 MCF-7 [1, 9]: did not exert any significant anti-proliferative action; IC50 MDA-MB-231 ([2]; SRB assay, 48 h): no activity; also recorded: did not exert any significant anti-proliferative action

Source: paper PMC7248897, “Synthesis, Biological Evaluation and In Silico Studies of Certain Oxindole–Indole Conjugates as Anticancer CDK Inhibitors” (Molecules, 2020)
